Tested on: CNV lesions
Experiment: NHP laser-induced CNV, fluorescein angiography lesion grading
Type: in vivo, Chlorocebus sabaeus
Details: single ITV 1 mg Aflibercept

aflibercept: current standard of care anti-VEGF, single ITV administration of 1 mg
incidence of grade IV lesions, Myr-EBIN vs aflibercept groups: no significant difference
